The source of these data is patent US5654008A, “Preparation of biodegradable microparticles containing a biologically active agent” (Alkermes Controlled Therapeutics Inc. II, priority 1996, dated 1997).

In the case of `C#C[C@]1(O)CC[C@H]2[C@@H]3CCC4=CC(=O)CC[C@@H]4[C@H]3CC[C@@]21C` [NET, norethindrone], the “NET release rate, effect of quench volume” value (0.25 to 1.5 L quench liquid per gram, possible minimum at 1 L) is “varies slightly with a possible minimum”. The “in vitro release, effect of ethyl acetate content of quench liquid” value (at extreme ethyl acetate contents) is reported as “quicker release”.
